# System: OVA-specific CD4+ T (OT-II) cells
# Assay: BMDC/B cell co-culture with OT-II cells, CFSE dilution and CD25 expression
# Assay type: cell-based, mouse
# Conditions: BMDCs and B cells, 3-day co-culture
# Method: T cell proliferation studies assays were carried out as described. The assay was carried out in T cell media. BMDCs (2×10^4/well) or B cells (2×10^4/well) were seeded into 96-well round-bottom cell culture plates and incubated with LAg-nano or PAg-nano at various particle concentrations and Ag loadings for 3 hours. Following incubation, all wells were washed to remove excess particles that had not been internalized by cells. Cells were co-cultured with 2×10^4/well of each OTI (CD8) and OTII (CD4) T cells). Groups receiving antigen in lieu of LAg-nano or PAg-nano received soluble OVA323-339 or SIINFEKL (SEQ ID NO:1; 100 ng/mL) at this time. After 3 days of co-culture, the T cells were collected, stained for viability, CD4, and CD8 and analyzed using flow cytometry. The extent of T cell proliferation was analyzed by CFSE dilution using flow cytometry. Ag processing kinetics in B cells was determined by loading with long GP100, KVPRNQDWL (SEQ ID NO:4; short GP100), or lipid-long GP100, […] (lipid-GP100; SEQ ID NO:3). […]
# BMDCs and B cells loaded with unmodified ovalbumin (OVA) MHC II-restricted antigen (OVA323-339) or lipo-OVA323-339 were co-cultured with OVA-specific CD4^+ T (OT-II) cells for 3 days. CD25+ expression was detected and the proliferation and division indices were calculated. […] FIGS. 11E through 11H show quantitation of the proliferation and division indices of OT-II T cells. […]
substance,measurement,value
Lipo-OVA323-339: DSPE-PEG2000 lipid conjugated to OVA323-339 (ISQAVHAAHAEINEAGR; SEQ ID NO:2),APC internalization and MHC II-restricted presentation to OTII CD4+ T cells,enables APC internalization and promotes MHC II-restricted presentation

# — patent publication US20230285568A1, “ENGINEERING DIVERSE ANTIGEN-PRESENTING CELLS TO CONTROL ANTIGEN-SPECIFIC RESPONSES” (University of Maryland, Baltimore, priority 2020, published 2023)
